Article PMC6895199, “A new antiviral scaffold for human norovirus identified with computer-aided approaches on the viral polymerase” (Scientific Reports, 2019)

Assays:
[1] = Cytotoxicity by the MTS method on uninfected cells; assay type: cell-based; conditions: mouse, uninfected RAW 264.7 cells
Procedure: Cytotoxicity: The cytotoxicity of the Compounds was evaluated by the MTS method, by exposing uninfected cells to the same concentrations of compounds for 3 days. The %cell viability was calculated as (ODtreated/ODCC) × 100, where ODCC is the OD of uninfected untreated cells and ODtreated are uninfected cells treated with compound. The CC50 was defined as the compound concentration that reduces the number of viable cells by 50%[34].

HuNoV (GII.4) RdRp = HuNoV (GII.4) RdRp (Norovirus Hu/GII.4/Sydney/NSW0514/2012/AU, UniProt K4L8Z7); assay: Quantitative fluorescent RdRp activity assay (PicoGreen, poly(C) template); assay type: biochemical, human norovirus Sydney 2012; conditions: for inhibition at 20 µM: read-out: inhibition of HuNoV RdRp activity at fixed concentration; for IC50: HuNoV (GII.4) RdRp activity, six concentrations 0.1–100 µM, mean ± SD
Procedure: The newly synthesised compounds, including the carboxylate ester derivatives 34–35 and 7 from the Core Hopping approach, were evaluated for their enzymatic inhibition of human norovirus Sydney 2012 (HuNoV (GII.4)) RdRp activity in vitro, using a quantitative fluorescent assay. Compounds were tested at six different concentrations (concentration range examined: 0.1–100 µM) and compared to the relative activity of mock treated samples containing the vehicle only (0.5% DMSO [vol/vol]). PPNDS [Pyridoxal-5′-phosphate-6-(2′-naphthylazo-6′-nitro-4′,8′-disulfonate) tetrasodium salt], a previously reported potent inhibitor of NoV RdRp activity, and 1 were used as positive controls. Dose-dependent inhibitory response curves were used to establish IC50 values for the eight test compounds, as reported in Table 1 (see also Supplementary Fig. S1).
The newly prepared compounds 48–60 were initially evaluated against norovirus Sydney 2012 RdRp activity in vitro using a quantitative fluorescent assay. Compounds were tested at a fixed concentration of 20 µM and compared to the relative activity of mock treated samples. PPNDS and 1 were used as positive controls. […] These two rings are structural features present in 1 and in one of its derivatives we have previously reported. […] From these observations, the thiophene ring appears not to influence inhibitory activity. Derivatives in which the central core of 48 has been used to link the two terminal hydrophobic rings of 1 or of its derivatives we have previously reported[25] (55, 57, 58) appear to retain the RdRp inhibitory activity found for 48 (~20% at 20 µM). A similar effect is obtained when a sulfonyl group, as in our hit 1, is used to link ring 2, regardless if it is a thiazole (59) or an unsubstituted phenyl ring (60), to the rest of the molecule. […] Overall, even if showing a reduced biochemical activity in comparison with 1, some of the new derivatives can be considered as modest HuNoV RdRp inhibitors at 20 µM.
Fluorescent RdRp activity assays were carried out as previously described[12],[29]. Briefly, RdRp activity was quantified by monitoring the formation of double-stranded RNA (dsRNA) from a single stranded homopolymeric template, poly(C) (Sigma Aldrich), using the fluorescent dye PicoGreen (Life Technologies, Carlsbad, CA, USA). RdRp assays were performed in 384-well plates, and each reaction mixture contained 400 ng enzyme, 45 μM GTP, 10 ng/μL poly(C) RNA, 2.5 mM MnCl2, 5 mM dithiothreitol, (DTT), 0.01% bovine serum albumin (BSA), and 0.005% Tween 20 in 20 mM Tris-HCl, pH 7.5, with a final reaction volume of 25 μL. The PPNDS and compound 1 were used as a positive controls. RdRps were incubated for 10 mins at 30 °C in the presence of the test compounds or the compound vehicle DMSO (0.5% vol/vol) before addition into the reaction mixture, which was then allowed to run 15 min at 30 °C then terminated with 10 mM EDTA, followed by PicoGreen staining and dsRNA quantitation. GraphPad Prism V6.05 (La Jolla, CA, USA) was used to plot the IC50 values. A secondary gel-based polymerase activity assay was used as a counter-screen as described below, to exclude the possibility of RdRp activity enhancement. Primed elongation activity was examined in a gel-based assay as previously described[12],[29] using the RNA template (PE44-NoV). Gels were imaged using BioRad (Hercules, CA, U.SA) Geldoc Universal Hood II, running BioRad Image Lab software, V4.1, build 16.

MNV = MNV CPE reduction assay (MTS) in RAW 264.7 cells; assay type: cell-based, mouse norovirus (MNV-1.CW1); conditions: Norovirus, RAW264.7, in Mus musculus
Procedure: The newly prepared compounds 2–7 and 34–35 were evaluated for their antiviral effect against the genogroup V mouse norovirus (MNV) using the mouse macrophage cell line RAW264.7. This assay evaluates the ability of the compounds to protect infected cells from the virus-induced cytopathic effect, thus being suitable to identify inhibition of virus replication at every step of the virus life cycle, and representing a robust cellular assay available for the rapid evaluation of potential norovirus inhibitors. Compounds identified using MNV have shown effects against HuNoV in vitro and in vivo, as in the case of nucleoside RdRp inhibitor 2′-C-methylcytidine (2CMC)[34]–[36]. Unfortunately, despite not presenting the aqueous solubility issues we had previously encountered for 1[29], no significant antiviral effect could be observed in this assay for the new compounds up to the maximum concentration tested. The new structural modifications, despite retaining inhibition of the RdRp in an isolated enzyme activity assay and showing no cytotoxic effects at the test concentrations in the MNV antiviral assay (Supplementary Table S1), are correlated with a lack of antiviral activity. As these new structures present the same limitation of most non-nucleoside HuNoV polymerase inhibitors reported so far[22], we were prompted to apply a different computer-aided strategy to further modify the scaffold of 1, with the aim to achieve an antiviral effect in cellular systems. […]
Since the main scope of this work was to find new norovirus inhibitors which show antiviral effects against both the HuNoV RdRp and in norovirus-infected cells, priority was given to the evaluation of most of the new molecules for their antiviral activity against MNV in infected RAW cells. The nucleoside 2′-C-methylcytidine was used as positive control. The test compounds were evaluated at eight different concentrations (range 0.6–100 µM) and their ability to reduce the virus-induced cytopathic effect was assessed.
Cells and virus: MNV (virus strain MNV-1.CW1) was propagated in RAW 264.7 cells grown in DMEM (Life Technologies, Gent, Belgium) supplemented with 10% or 2% FBS, 2 mM L-glutamine, 20 mM HEPES, 0.075 g/L sodium bicarbonate, 1 mM sodium pyruvate, 100 U penicillin/mL and 100 µg/mL streptomycin at 37 °C in a humidified atmosphere of 5% CO2. The human norovirus GI.1 replicon harboring gastric tumor-1 cell line (HGT-NV) (kindly provided by Dr. Ian Goodfellow, University of Cambridge) was maintained in DMEM supplemented with 10% FBS, 2mM L-glutamine, 0.075 g/L sodium bicarbonate and 1.0 mg/ml of Geneticin (G418; Life Technologies), at 37 °C in a humidified atmosphere of 5% CO2[34].
Antiviral assay with MNV: The antiviral activity of the Compounds was determined using an MTS [3-(4,5-dimethylthiazol-2-yl)-5-(3-carboxymethoxyphenyl)-2-(4-sulfophenyl)-2H-tetrazolium]-based cytopathic effect (CPE) reduction assay. […] Then, a MTS-phenazinemethosulfate (MTS/PMS) stock solution [(2 mg/mL MTS (Promega, Leiden, The Netherlands) and 46 µg/mL PMS (Sigma–Aldrich, Bornem, Belgium) in PBS at pH 6–6.5)] was diluted 1/20 in MEM (Life Technologies, Gent, Belgium) and 75 µL were added to each well. After 2 h, the optical density (OD) was read at 498 nm. The %CPE reduction was calculated as [(ODtreated)MNV − ODVC]/[ODCC − ODVC] × 100, where ODCC represents the OD of the uninfected untreated cells, whereas ODVC and (ODtreated)MNV represent the OD of infected untreated cells and virus-infected cells treated with a compound concentration, respectively. The 50% effective concentration (EC50) was defined as the compound concentration that protected 50% of the cells from virus-induced CPE[34].

[2] = Table 2, at least three independent experiments
[3] = Table 2, RAW 264.7, range 0.6–100 µM, at least three independent experiments
[4] = Supplementary Table S1, at least two independent experiments

With O=C(NC(=S)Nc1ccc(N2CCN(C(=O)c3ccccc3)CC2)cc1)c1ccccc1 [Compound 55, N-((4-(4-Benzoylpiperazin-1-yl)phenyl)carbamothioyl)benzamide] the CC50 at 3 days [1, 2] was 61.9 µM, the inhibition at 20 µM (HuNoV (GII.4) RdRp) was ~20% and the EC50 (MNV; [3]) was > 100 µM.
Work on O=C(Nc1ccc(N2CCN(C(=O)c3cccs3)CC2)cc1)c1ccccc1 [Compound 73, N-(4-(4-(thiophene-2-carbonyl)piperazin-1-yl)phenyl)benzamide] yielded an inhibition at 20 µM (HuNoV (GII.4) RdRp) of ~40%.
In the case of O=C1NN(c2ccccc2)C(=O)/C1=C/c1ccc(-c2ccc(S(=O)(=O)Nc3ncco3)cc2)o1 [Compound 5, (E)-4-(5-((3,5-dioxo-1-phenylpyrazolidin-4-ylidene)methyl)furan-2-yl)-N-(oxazol-2-yl)benzenesulfonamide], the CC50 at 3 days [1, 4] is reported as > 100 µM, the IC50 (HuNoV (GII.4) RdRp) is reported as 12.8 ± 2.6 µM and the EC50 (MNV; [4]) is reported as > 100 µM.
With O=C1NN(c2ccc(C(=O)O)cc2)C(=O)/C1=C/c1ccc(-c2ccc(S(=O)(=O)Nc3ccccc3)cc2)o1 [Compound 2, (E)-4-(3,5-dioxo-4-((5-(4-(N-phenylsulfamoyl)phenyl)furan-2-yl)methylene)pyrazolidin-1-yl)benzoic acid] the CC50 at 3 days [1, 4] was > 100 µM, the IC50 (HuNoV (GII.4) RdRp) was 17.2 ± 2.4 µM and the EC50 (MNV; [4]) was > 100 µM.
In the case of Cc1ccc(C(=O)NC(=S)Nc2ccc(N3CCN(C(=O)c4ccccc4)CC3)cc2)cc1 [Compound 57, N-((4-(4-Benzoylpiperazin-1-yl)phenyl)carbamothioyl)-4-methylbenzamide], the CC50 at 3 days [1, 2] is reported as > 100 µM, the inhibition at 20 µM (HuNoV (GII.4) RdRp) is reported as ~20% and the EC50 (MNV; [3]) is reported as > 100 µM.
With O=C1NN(c2cccc(C(=O)O)c2)C(=O)/C1=C/c1ccc(-c2ccc(S(=O)(=O)Nc3ccccc3)cc2)o1 [Compound 3, (E)-3-(3,5-dioxo-4-((5-(4-(N-phenylsulfamoyl)phenyl)furan-2-yl)methylene)pyrazolidin-1-yl)benzoic acid] the CC50 at 3 days [1, 4] was > 100 µM, the IC50 (HuNoV (GII.4) RdRp) was 22.5 ± 6.5 µM and the EC50 (MNV; [4]) was > 100 µM.
With O=C(NC(=S)Nc1ccc(N2CCN(C(=O)c3cccs3)CC2)cc1)c1cc2ccccc2s1 [Compound 49, N-((4-(4-(Thiophene-2-carbonyl)piperazin-1-yl)phenyl)carbamothioyl)benzo[b]thiophene-2-carboxamide] the CC50 at 3 days [1, 2] was > 100 µM, the inhibition at 20 µM (HuNoV (GII.4) RdRp) was 15 to 20% and the EC50 (MNV; [3]) was > 100 µM.
O=C(NC(=S)Nc1ccc(N2CCN(C(=O)c3cccs3)CC2)cc1)c1sc2ccccc2c1C(F)(F)F [Compound 50, N-((4-(4-(Thiophene-2-carbonyl)piperazin-1-yl)phenyl)carbamothioyl)-3-(trifluoromethyl)benzo[b] thiophene-2-carboxamide] showed an inhibition at 20 µM (HuNoV (GII.4) RdRp) of 15 to 20%.
Work on O=C(NC(=S)Nc1ccc(N2CCN(C(=O)c3cccs3)CC2)cc1)c1ccccc1 [Compound 51, N-((4-(4-(Thiophene-2-carbonyl)piperazin-1-yl)phenyl)carbamothioyl)benzamide] yielded an inhibition at 20 µM (HuNoV (GII.4) RdRp) of ~15%.
Compound C[C@@]1(O)[C@H](O)[C@@H](CO)O[C@H]1n1ccc(N)nc1=O [Compound 2CMC, 2′-C-methylcytidine, reference compound] has a CC50 at 3 days [1, 2] of 16 ± 2 µM and an EC50 (MNV; [3]) of 2 ± 1 µM.
For O=C1NN(c2ccccc2)C(=O)/C1=C/c1ccc(-c2ccc(S(=O)(=O)Nc3ncccn3)cc2)o1 [Compound 4, (E)-4-(5-((3,5-dioxo-1-phenylpyrazolidin-4-ylidene)methyl)furan-2-yl)-N-(pyrimidin-2-yl)benzenesulfonamide], the CC50 at 3 days [1, 4] was 60 ± 21 µM, the inhibition at 100 µM (HuNoV (GII.4) RdRp; 100 µM, read-out: inhibition of RdRp activity at the maximum concentration tested) was 15% and the EC50 (MNV; [4]) was > 50 µM.
In the case of O=C(NC(=S)Nc1ccc(N2CCN(C(=O)c3nccs3)CC2)cc1)c1ccccc1 [Compound 58, N-((4-(4-(Thiazole-2-carbonyl)piperazin-1-yl)phenyl)carbamothioyl)benzamide], the inhibition at 20 µM (HuNoV (GII.4) RdRp) is reported as ~20%.
For CCOC(=O)c1cccc(N2NC(=O)/C(=C\c3ccc(-c4ccc(S(=O)(=O)Nc5ccccc5)cc4)o3)C2=O)c1 [Compound 35, Ethyl(E)-3-(3,5-dioxo-4-((5-(4-(N-phenylsulfamoyl)phenyl)furan-2-yl)methylene)pyrazolidin-1-yl)benzoate], the CC50 at 3 days [1, 4] was > 100 µM, the IC50 (HuNoV (GII.4) RdRp) was 18.9 ± 3.1 µM and the EC50 (MNV; [4]) was > 100 µM.
With O=C1NN(c2ccccc2)C(=O)/C1=C/c1ccc(-c2ccc(S(=O)(=O)Nc3nc4ccccc4[nH]3)cc2)o1 [Compound 6, (E)-N-(1H-benzo[d]imidazol-2-yl)-4-(5-((3,5-dioxo-1-phenylpyrazolidin-4-ylidene)methyl)furan-2-yl)benzenesulfonamide] the CC50 at 3 days [1, 4] was > 100 µM, the IC50 (HuNoV (GII.4) RdRp) was 26.7 ± 2 µM and the EC50 (MNV; [4]) was 89 ± 2 µM.
